Measured values from US12568967B2, “Compositions comprising pyridine carboxylate herbicides with synthetic auxin herbicides or auxin transport inhibitors” (priority 2018, dated 2026).
Read-outs that look alike come from different tables or passages of the source.

Key:
[1] = system: Matricaria inodora (false chamomile, MATIN); test: Greenhouse postemergence trial MATIN; assay type: in vivo; conditions: MATIN
[2] = system: Salsola kali (Russian thistle, SASKR); test: Greenhouse postemergence trial SASKR; assay type: in vivo;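 note: greenhouse plants sprayed at second or third true leaf stage, injury rated by eye after 20-22 d against solvent-blank controls, 0 meaning no injury, 100 complete kill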
Procedure: (§1) The plants were grown for 7-36 days (d) in a greenhouse with an approximate 14-hour (h) photo-period which was maintained at about 23° C. during the day and 22° C. during the night. Nutrients and water were added on a regular basis and supplemental lighting was provided with overhead metal halide 1000-Watt lamps as necessary. The plants were employed for testing when they reached the second or third true leaf stage.
(§2) The emulsifiable concentrates also included a safener, cloquintocet-mexyl, at 120 grams active ingredient per liter (g ai/L), unless otherwise noted below.
(§3) Control plants were sprayed in the same manner with the solvent blank. All pyridine carboxylate herbicide (component a) application rates are given as “g ae/ha” and all synthetic auxin herbicide or auxin transport inhibitor (component b) application rates are given as “g ai/ha.”
(§4) The treated plants and control plants were placed in a greenhouse as described above and watered by sub-irrigation to prevent wash-off of the test compounds. After 20-22 d, the condition of the test plants as compared with that of the control plants was determined visually and scored on a scale of 0 to 100 percent where 0 corresponds to no injury and 100 corresponds to complete kill.

[3] = system: Triticum aestivum (winter wheat, TRZAW); test: Greenhouse postemergence crop phytotoxicity TRZAW; assay type: in vivo; conditions: TRZAW
Procedure: (§5) Seeds of the desired test plant species were planted in a 90:10% v/v (volume/volume) mixture of PRO-MIX® BX (Premier Tech Horticulture, Quakertown, PA, USA) and PROFILE® GREENS GRADE™ (Profile Products LLC, Buffalo Grove, IL, USA) planting mixture, which typically has a pH of 5.2 to 6.2 and an organic matter content of at least 50 percent, in plastic pots with a surface area of 103.2 square centimeters (cm^2). […] The plants were grown for 7-36 days (d) in a greenhouse with an approximate 14-hour (h) photo-period which was maintained at about 23° C. during the day and 22° C. during the night. Nutrients and water were added on a regular basis and supplemental lighting was provided with overhead metal halide 1000-Watt lamps as necessary. The plants were employed for testing when they reached the second or third true leaf stage.
(§6) Emulsifiable concentrates of each of each pyridine carboxylate herbicide (Compound A or Compound B) were prepared at 100 grams acid equivalent per liter (g ae/L). The emulsifiable concentrates also included a safener, cloquintocet-mexyl, at 120 grams active ingredient per liter (g ai/L), unless otherwise noted below. An aliquot of each emulsifiable concentrate was placed in a 25 mL glass vial and diluted with an aqueous mixture of 1.25% (v/v) ACTIROB® B esterified rapeseed oil (Bayer Crop Science, Research Triangle Park, NC, USA) or MSO® Concentrate with LECI-TECH® methylated soybean oil (Loveland Products, Loveland, CO, USA) to obtain concentrated stock solutions at the highest application rate for each herbicide, based upon a 12 milliliter (mL) application volume at a rate of 187 liters per hectare (L/ha). The concentrated stock solutions were further diluted with an aqueous mixture of 1.25% v/v ACTIROB® B or MSO® Concentrate with LECI-TECH® to obtain stock solutions at reduced application rates for each herbicide. Spray solutions of the herbicide combinations (Compound A or Compound B plus synthetic auxin herbicide or auxin transport inhibitor) were prepared by adding weighed amounts or aliquots of the synthetic auxin herbicide or auxin transport inhibitor to the stock solutions of Compound A or Compound B to form 12-mL spray solutions in two-way combinations.
(§7) The spray solutions were applied to the plant material with an overhead Mandel track sprayer equipped with 8002E nozzles calibrated to deliver 187 L/ha over an application area of 0.503 square meters (m^2) at a spray height of 18 inches (43 centimeters (cm)) above the average plant canopy. Control plants were sprayed in the same manner with the solvent blank. All pyridine carboxylate herbicide (component a) application rates are given as “g ae/ha” and all synthetic auxin herbicide or auxin transport inhibitor (component b) application rates are given as “g ai/ha.”
as §4

[4] = system: Matricaria discoidea (pineapple weed, MATMT); test: Greenhouse postemergence trial MATMT; assay type: in vivo; conditions: MATMT
[5] = system: Matricaria chamomilla (wild chamomile, MATCH); test: Greenhouse postemergence trial MATCH; assay type: in vivo;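 note: greenhouse plants sprayed at second to third true leaf stage, injury rated by eye 20-22 d later versus solvent-blank controls on 0–100 scale, 0 no injury, 100 complete kill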
[6] = system: Viola arvensis (field violet, VIOAR); test: Greenhouse postemergence trial VIOAR; assay type: in vivo; conditions: VIOAR
[7] = system: Papaver rhoeas (corn poppy, PAPRH); test: Greenhouse postemergence trial PAPRH; assay type: in vivo; conditions: PAPRH
[8] = system: Brassica napus (winter rape, BRSNW); test: Greenhouse postemergence trial BRSNW; assay type: in vivo; conditions: BRSNW
[9] = system: Triticum aestivum (spring wheat, TRZAS); assay type: in vivo; conditions: for % visual injury (Obs) / % visual injury Obs: TRZAS
Procedure: as §5, §6, §7, §4

[10] = system: Viola tricolor (wild pansy, VIOTR); test: Greenhouse postemergence trial VIOTR;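 note: greenhouse plants sprayed at second to third true leaf stage, injury rated visually after 20-22 d against solvent-blank sprayed controls, 0 meaning no injury and 100 complete kill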
[11] = system: Anthemis arvensis (field chamomile, ANTAR); test: Greenhouse postemergence trial ANTAR; assay type: in vivo; conditions: ANTAR
[12] = system: Papaver rhoeas (corn poppy), herbicide-resistant (PAPRH-R); test: Greenhouse postemergence trial PAPRH-R; assay type: in vivo; conditions: PAPRH-R
Procedure: as §5, §6, §7, §4

[13] = system: Brassica napus (spring rape, BRSNN); test: Greenhouse postemergence trial BRSNN; assay type: in vivo; conditions: for % visual injury (Obs): BRSNN
Procedure: as §1, §2, §3, §4

[14] = system: Cyanus segetum (cornflower, CENCY); test: Greenhouse postemergence trial CENCY; assay type: in vivo; conditions: CENCY
[15] = system: Veronica hederifolia (ivyleaf speedwell, VERHE); test: Greenhouse postemergence trial VERHE; assay type: in vivo; conditions: VERHE
Procedure: as §5, §6, §7, §4

[16] = system: Kochia scoparia (kochia, KCHSC); test: Greenhouse postemergence trial KCHSC; assay type: in vivo
Procedure: as §5, §6, §7, §4

[17] = system: Capsella bursa-pastoris (shepherd's purse, CAPBP); test: Greenhouse postemergence trial CAPBP; assay type: in vivo; conditions: CAPBP
[18] = system: Cirsium arvense (Canadian thistle, CIRAR); test: Greenhouse postemergence trial CIRAR; assay type: in vivo
Procedure: as §5, §6, §7, §4

[19] = system: Hordeum vulgare (winter barley, HORVW); test: Greenhouse postemergence crop phytotoxicity HORVW; assay type: in vivo; conditions: HORVW
[20] = system: Sinapis arvensis (wild mustard, SINAR); test: Greenhouse postemergence trial SINAR; assay type: in vivo
[21] = system: Polygonum convolvulus (wild buckwheat, POLCO); test: Greenhouse postemergence trial POLCO; assay type: in vivo; conditions: POLCO
[22] = system: Stellaria media (chickweed, STEME); test: Greenhouse postemergence trial STEME; assay type: in vivo; conditions: STEME
Procedure: as §5, §6, §7, §4

[23] = system: Lamium purpureum (purple deadnettle, LAMPU); test: Greenhouse postemergence trial LAMPU
[24] = system: Hordeum vulgare (spring barley, HORVS); assay type: in vivo; conditions: for % visual injury (Obs) / % visual injury Obs: HORVS
Procedure: as §5, §6, §7, §4

[25] = system: Veronica persica (bird's-eye speedwell, VERPE); test: Greenhouse postemergence trial VERPE; assay type: in vivo; conditions: VERPE
[26] = system: Chenopodium album L. (common lambsquarters, CHEAL); test: Greenhouse postemergence trial CHEAL; assay type: in vivo; conditions: chlorflurenol-methyl 140 g/ha;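 note: greenhouse plants sprayed at second to third true leaf stage, injury rated by eye after 20-22 d versus solvent-blank sprayed controls, 0 = no injury, 100 = complete kill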
[27] = system: Amaranthus retroflexus (pigweed, AMARE); test: Greenhouse postemergence trial AMARE; assay type: in vivo; conditions: chlorflurenol-methyl 140 g/ha;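 note: Greenhouse-grown plants sprayed at second to third true leaf stage, injury rated by eye after 20-22 d versus solvent-blank sprayed controls, 0 = no injury, 100 = complete kill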
[28] = Papaver rhoeas, post-emergence, Picloram 20 g/ha, read-out: % visual injury Obs

Nc1nc(C2CC2)nc(C(=O)O)c1Cl [Aminocyclopyrachlor]
% visual injury Obs ([1]; alone, 50 g/ha): 85% | % visual injury Obs ([2]; SASKR, alone, 50 g/ha): 75% | % visual injury Obs ([3]; alone, 50 g/ha): 0% | % visual injury Obs ([4]; alone, 50 g/ha): 50% | % visual injury Obs ([5]; MATCH, alone, 50 g/ha): 60% | % visual injury Obs ([6]; alone, 50 g/ha): 25% | % visual injury Obs ([7]; alone, 50 g/ha): 75% | % visual injury Obs ([8]; alone, 50 g/ha): 50% | % visual injury (Obs) ([9]; alone 25 g/ha): 43% | % visual injury Obs ([9]; alone, 50 g/ha): 0% | % visual injury (Obs) ([10]; VIOTR, alone 25 g/ha): 45% | % visual injury Obs ([10]; VIOTR, alone, 50 g/ha): 30% | % visual injury Obs ([11]; alone, 50 g/ha): 100% | % visual injury Obs ([12]; alone, 50 g/ha): 60% | % visual injury (Obs) ([13]; alone 25 g/ha): 30% | % visual injury Obs ([14]; alone, 50 g/ha): 100% | % visual injury Obs ([15]; alone, 50 g/ha): 60% | % visual injury (Obs) ([16]; KCHSC, alone 25 g/ha): 78% | % visual injury Obs ([16]; KCHSC, alone, 50 g/ha): 100% | % visual injury Obs ([17]; alone, 50 g/ha): 70% | % visual injury Obs ([18]; CIRAR, alone, 50 g/ha): 85% | % visual injury Obs ([19]; alone, 50 g/ha): 0% | % visual injury Obs ([20]; SINAR, alone, 50 g/ha): 50% | % visual injury Obs ([21]; alone, 50 g/ha): 70% | % visual injury Obs ([22]; alone, 50 g/ha): 30% | % visual injury Obs ([23]; LAMPU, alone, 50 g/ha): 65% | % visual injury (Obs) ([24]; alone 25 g/ha): 20% | % visual injury Obs ([24]; alone, 50 g/ha): 0% | % visual injury Obs ([25]; alone, 50 g/ha): 65%

COC(=O)C1(O)c2ccccc2-c2ccc(Cl)cc21 (centres unmarked) [Chlorflurenol-methyl]
SASKR Obs (% visual injury) ([2]; chlorflurenol-methyl 140 g/ha): 0% | MATCH Obs (% visual injury) ([5]; chlorflurenol-methyl 140 g/ha): 0% | TRZAS Obs (% visual injury) ([9]; chlorflurenol-methyl 140 g/ha): 0% | BRSNN Obs (% visual injury) ([13]; chlorflurenol-methyl 140 g/ha): 23% | CHEAL Obs (% visual injury) [26]: 0% | KCHSC Obs (% visual injury) ([16]; chlorflurenol-methyl 140 g/ha): 0% | AMARE Obs (% visual injury) [27]: 0% | CIRAR Obs (% visual injury) ([18]; chlorflurenol-methyl 140 g/ha): 0% | SINAR Obs (% visual injury) ([20]; chlorflurenol-methyl 140 g/ha): 18% | HORVS Obs (% visual injury) ([24]; chlorflurenol-methyl 140 g/ha): 0%

Nc1c(Cl)c(Cl)nc(C(=O)O)c1Cl [Picloram]
% visual injury (Obs) ([1]; alone 10 g/ha): 10% | pest or weed control at 20 g/ha ([1]; Tripleurospermum inodorum, post-emergence, Picloram 20 g/ha, read-out: % visual injury Obs): 30% | pest or weed control at 20 g/ha ([2]; Salsola kali, post-emergence, SASKR, Picloram 20 g/ha, read-out: % visual injury Obs): 30% | % visual injury Obs ([3]; Picloram 20 g/ha): 0% | pest or weed control at 20 g/ha ([4]; Matricaria discoidea, post-emergence, Picloram 20 g/ha, read-out: % visual injury Obs): 10% | pest or weed control at 20 g/ha ([5]; Matricaria chamomilla, post-emergence, MATCH, Picloram 20 g/ha, read-out: % visual injury Obs): 40% | pest or weed control at 20 g/ha ([6]; Viola arvensis, post-emergence, Picloram 20 g/ha, read-out: % visual injury Obs): 10% | pest or weed control at 20 g/ha [7, 28]: 20% | plant injury at 20 g/ha ([8]; Brassica napus, post-emergence, Picloram 20 g/ha, read-out: % visual injury Obs): 10% | % visual injury Obs ([9]; Picloram 20 g/ha): 0% | % visual injury (Obs) ([9]; alone 10 g/ha): 0% | % visual injury (Obs) ([10]; VIOTR, alone, 10 g/ha): 10% | pest or weed control at 20 g/ha ([10]; Viola tricolor, post-emergence, read-out: % visual injury Obs): 10% | pest or weed control at 20 g/ha ([11]; Anthemis arvensis, post-emergence, Picloram 20 g/ha, read-out: % visual injury Obs): 30% | pest or weed control at 20 g/ha [12, 28]: 30% | % visual injury (Obs) ([13]; alone 10 g/ha): 8% | pest or weed control at 20 g/ha ([14]; Centaurea cyanus, post-emergence, Picloram 20 g/ha, read-out: % visual injury Obs): 60% | pest or weed control at 20 g/ha ([15]; Veronica hederifolia, post-emergence, Picloram 20 g/ha, read-out: % visual injury Obs): 10% | pest or weed control at 20 g/ha ([16]; Bassia scoparia, post-emergence, KCHSC, Picloram 20 g/ha, read-out: % visual injury Obs): 10% | % visual injury (Obs) ([16]; KCHSC, alone 10 g/ha): 10% | % visual injury (Obs) ([17]; alone 10 g/ha): 10% | pest or weed control at 20 g/ha ([17]; Capsella bursa-pastoris, post-emergence, Picloram 20 g/ha, read-out: % visual injury Obs): 0% | pest or weed control at 20 g/ha ([18]; Cirsium arvense, post-emergence, CIRAR, Picloram 20 g/ha, read-out: % visual injury Obs): 60% | % visual injury Obs ([19]; Picloram 20 g/ha): 0% | pest or weed control at 20 g/ha ([20]; Mutarda arvensis, post-emergence, SINAR, Picloram 20 g/ha, read-out: % visual injury Obs): 30% | pest or weed control at 20 g/ha ([21]; Fallopia convolvulus, post-emergence, Picloram 20 g/ha, read-out: % visual injury Obs): 40% | pest or weed control at 20 g/ha ([22]; Stellaria media, post-emergence, Picloram 20 g/ha, read-out: % visual injury Obs): 10% | % visual injury (Obs) ([23]; LAMPU, alone 10 g/ha): 10% | pest or weed control at 20 g/ha ([23]; Lamium purpureum, post-emergence, read-out: % visual injury Obs): 5% | % visual injury Obs ([24]; Picloram 20 g/ha): 0% | % visual injury (Obs) ([24]; alone 10 g/ha): 0% | pest or weed control at 20 g/ha ([25]; Veronica persica, post-emergence, Picloram 20 g/ha, read-out: % visual injury Obs): 10%
